Publication PMC6150735, “Molecular Docking-Based Design and Development of a Highly Selective Probe Substrate for UDP-glucuronosyltransferase 1A10” (Molecular Pharmaceutics, 2018)

Key:
[1] = test system: human UGTs; experiment: Recombinant human UGT screen: glucuronidation rates across human UGTs; type: biochemical; details: 10 μM aglycone; other UGTs at very low rates
Method: Recombinant human UGTs 1A1, 1A3, 1A6, 1A7, 1A8, 1A9, 1A10, 2A1, 2A2, 2A3, 2B4, 2B10, 2B7, and 2B17 were produced, as His-tagged proteins, in baculovirus-infected insect cells as previously described.[37]−[39] The relative expression level of each of these recombinant UGTs was evaluated by immunodetection, using monoclonal antibody against the His-tag, as described elsewhere.[40] A numeric value of 1.0 was given to the expression level of UGT1A8 and the relative expression level of each of the other UGTs was related to this value. Normalized activities were obtained by dividing the glucuronidation rate values by the relative expression level of the tested UGT. In addition, UGTs 1A4, 2B10, and 2B15 were purchased from Corning Life Sciences (New York) and are marked, in Figure 5, with a “C” to indicate that they are commercial enzymes. The expression levels of the UGTs in the commercial samples could not be determined, so their protein concentration was used to calculate the reaction rate.
(§1) The incubation mixtures for glucuronidation assays contained 100 mM Tris-HCl buffer pH 7.4, 2.5 mM MgCl2, 0.5 mM UDPGA, recombinant UGT, or microsomes as the enzyme source and 0–15 μM of the test aglycone substrate. When the incubation mixtures contained microsomes, alamethicin was used at a final concentration of 12.5 μg/mL, but it was not included in the recombinant enzyme assays.[43] In the first experiments three negative control samples were tested, namely (i) without the substrate 7-hydroxycoumarin derivative, (ii) without the cofactor UDPGA, or (iii) without the enzyme source. In subsequent experiments, the control samples lacked the enzyme source since it gave the highest fluorescence background. Preliminary experiments were done under different conditions than most of the later assays, namely in 2.5 mL of 100 mM phosphate buffer pH 7.4, containing 500 μg pig liver microsomes, 1.0 μM compound 6 and 0.5 mM UDPGA, at room temperature. Fluorescence spectra (excitation 200–420 nm; emission 400–600 nm) or fluorescence decrease at 390 nm excitation and 460 nm emission, were measured in these preliminary experiments, using a Shimadzu RF-5000 spectrophotofluorometer.
(§2) Most of the glucuronidation assays were carried out in 96 multiwell plate format, and incubations were carried out in 100 μL and at 37 °C, in the presence of Tris–HCl buffer pH 7.4, UDPGA, and the tested 7-hydroxycoumarin derivative, at the indicated concentrations. Fluorescence decline in the multiwell plate experiments was monitored every other minute, for 40 min, using an excitation filter at 405 nm and detection at 460 nm, in a Victor2 1420 Multilabel counter (PerkinElmer, Life Sciences, Turku, Finland). The fluorescence values were transformed into molarity using the aglycone substrates for making the respective standard curves. Slopes of the substrate concentration decrease per minute were calculated using linear regression analysis, in which the linear part of the kinetic assay indicated the glucuronidation rate. Enzyme catalyzed glucuronidation rate was calculated by subtracting the blank value from the full reaction value. The intra-assay variability of the kinetic assays was 6% when compound 6 was used as the aglycone substrate. Kinetic analyses were also performed in the same 96 multiwell plates format, with excitation filter at 405 nm and detection at 460 nm, using 6–8 different substrate concentrations per substrate and two different protein concentrations for both the wild-type and mutant UGT1A10. The higher concentrations, 13.5 mg/L for UGT1A10 and 12.0 mg/L for the UGT1A10 mutant, were used when the substrates were HFC, compounds 4 and 6, whereas the lower protein concentrations, 6.75 and 6.0 mg/L for UGT1A10 and the mutant, respectively, were used when the substrates were compounds 1, 2, 3, and 5.

[2] = Glucuronidation by human intestinal microsomes (HIM); type: in vitro ADME; details: human, pooled human intestinal microsomes (HIM), pH 7.4
Method: (§3) A commercial HLM pool (cat no:452210, BD Gentest, Bedford, MA) and human intestine microsomes (HIM) pool (lot. no 1110189, XenoTech, Kansas City, KS) were purchased. Pig liver samples were prepared from untreated female pigs that were used for practicing surgical procedures at the University of Kuopio (currently: University of Eastern Finland, Kuopio campus). Other animal liver microsomes were prepared as described previously.[41] The Ethics Committee for Animal Experiments, University of Kuopio, approved these experiments.
as §1, §2

[3] = test system: human intestinal microsomes (HIM); experiment: as above; type: in vitro ADME
Method: as §3, §1, §2

[4] = Absorbance spectra of coumarin derivatives; type: physicochemical; details: 10 μM, 100 mM Tris–HCl pH 7.4, 10% dimethyl sulfoxide
Method: (§4) The absorbance spectra of 10 μM coumarin derivatives at 100 mM Tris–HCl pH 7.4 containing 10% dimethyl sulfoxide were measured using a Hitachi U-2000 Spectrophotometer (Tokyo, Japan). Excitation and emission fluorescence spectra of 0.1 μM coumarin derivatives in 100 mM Tris-HCl pH 7.4 were measured using a Shimadzu RF-5000 spectrophotofluorometer (Tokyo, Japan). The excitation spectra was from 200 to 420 at 460 nm emission and the emission spectra was from 400 to 600 at 390 nm excitation (data in Supplementary Table S1 and Figures S1 and S2). The effect of pH on fluorescence intensity was determined at 405 nm excitation and 460 nm emission, in the presence of 1.5% trichloroacetic acid, 100 mM phosphate buffers at pH 5, 6, 7, 8, and 9, or 1.6 M glycine–NaOH pH 10.4.

[5] = Excitation and emission fluorescence spectra of coumarin derivatives; type: physicochemical; design: dose or concentration left out as unconfirmed
Method: as §4, with “Excitation and emission fluorescence spectra of 0.1 μM coumarin derivatives in 100 mM Tris-HCl pH 7.4 were measured using a Shimadzu RF-5000 spectrophotofluorometer (Tokyo, Japan).” left out

Structure (SMILES): O=c1oc2cc(O)ccc2cc1-n1cncn1 [Compound 6, 7-Hydroxy-3-(1H-1,2,4-triazol-1-yl)-2H-chromen-2-one]
- Selectivity among human UGTs [1]: selective for UGT1A10
- Km [2]: 12 µM
- Vmax ([3]; human intestinal microsomes): 3.5 (2.9–4.0) μmol/(min * g prot)
- Effect of adding albumin on Km and Vmax ([3]; intestinal microsomes, albumin in incubation mixture): increased both Km and Vmax values
- Amax [4]: 392 nm
- ε abs [4]: 20 500 cmx1*Mx1
- Fluorescence EMmax [5]: 494 nm
- Fluorescence EXmax [5]: 396 nm
